Experimental data taken from patent US20020119496A1, “Nuclear magnetic resonance screening method” (priority 2000, published 2002).

Biological target: T1, human muscle fatty acid binding protein M-FABP (Homo sapiens, UniProt P05413)
T1 construct: a plasmid containing the gene coding for a 143 amino acid protein construct of M-FABP; His-tag (C); made in house; host or cells: prototrophic Escherichia coli
Test: Site-selective NMR screening, 1H-15N fHSQC of 13C'-Val, 15N-Ala labeled M-FABP
Settings: 1:1 mixture with M-FABP, 200 μM protein
Protocol: The spectra were recorded at 20° C. on a 600 MHz Varian Unity INOVA NMR spectrometer using standard techniques. The sample was prepared in 20 mM sodium phosphate buffer (10% D2O/90% H2O) pH 7.4 containing 50 mM NaCl, 10 mM DTT and 0.02% NaN3. […] (a) 2D ^1H-^15N fast-HSQC (Mori et al., 1995), (b) 2D HNCO and (c) 1D HNCO. […] Experimental times were 1 hour, 4 hours, and 20 minutes respectively.
Experimental conditions were identical to those described in FIG. 8 except the samples used for spectra b-d contained additionally 1% d-DMSO. (a-d) Reference spectrum of free M-FABP. (b) 1:1 mixture of M-FABP and compound cocktail. (c) 1:1 mixture M-FABP and compound cocktail omitting oleic acid. (d) 1:1 mixture of M-FABP and oleic acid.

T1 sequence (P05413 whole entry): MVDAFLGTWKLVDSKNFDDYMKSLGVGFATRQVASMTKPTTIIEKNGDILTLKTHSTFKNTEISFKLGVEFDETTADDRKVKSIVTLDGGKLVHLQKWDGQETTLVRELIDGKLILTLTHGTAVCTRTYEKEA

chemical shift change of alanine 33 HSQC cross peak: chemical shift change is observed
Structure (SMILES): CCCCCCCC/C=C\CCCCCCCC(=O)O [oleic acid]
